The values that follow come from patent US20250213471A1, “PEMETREXED DISODIUM LIQUID COMPOSITION, PREPARATION METHOD THEREFOR AND USE THEREOF” (SHANGHAI AURORA BIOTECHNOLOGY CO., LTD., priority 2022, published 2025).

Values joined by “and” are separate entries in the source; they are usually repeats but may differ in a detail not shown here. Equal entries are not always repeated.

The test system of one data set is human plasma protein. The data set is described as follows: Human plasma protein binding rate by equilibrium dialysis. The following applies: positive, 5 μM. (In general: Equilibrium dialysis compares concentrations on both sides of a semipermeable membrane.)
The test system of a further data set is guinea pigs. The data set is described as follows: Active systemic anaphylaxis experiment in guinea pigs. The following applies: first challenge.
The mark [1] stands for this setting: positive control group (8 mg/mL, 0.5 mL/guinea pig sensitization, i.v.).

Protocol for guinea pigs: The administration doses were 20 m/kg and 40 mg/kg and were about 1.5 and 3 times of the highest clinical intended dose. The day of the first administration was defined as day 1 of the experiment. Sensitization was performed 1 time every other day. 3 consecutive sensitizations were performed (i.e., sensitization on days 1, 3, and 5 of the experiment). On day 14 and day 21 after the last sensitization (i.e., on day 19 and day 26 of the experiment), the guinea pigs were challenged by intravenous injection at 2 times the dose of the sensitization dose, and the systemic reaction and death after the challenge were observed.

Consider `CC(C)NCC(O)COc1cccc2ccccc12` (stereo not drawn) [Propranolol], for which the “Binding rate (%)” value in the data set with human plasma protein (human plasma) was determined as 87.27%. Also, in the data set on human plasma protein, the “Administration side (peak area ratio), Mean” value stood at 3.774; the “Administration side (peak area ratio), single replicates N = 1-3” value is 3.835 and 3.690 and 3.798; the “Receiving side (peak area ratio), Mean” value was 0.480; the “Receiving side (peak area ratio), single replicates N = 1-3” value was 0.486 and 0.480 and 0.475. Besides, in the data set with human plasma protein, the “T0 h (peak area ratio), Mean” value is reported as 5.286; the “T0 h (peak area ratio), single replicates N = 1-3” value is 5.491 and 5.043 and 5.325; the “T5 h (peak area ratio), Mean” value was 4.896; the “T5 h (peak area ratio), single replicates N = 1-3” value was 4.909 and 4.831 and 4.947. In addition, the “Stability (%)” value with human plasma protein (T5 h vs T0 h) turned out to be 92.61%.

B1: Positive control: 8 mg/mL egg white albumin solution, positive control of the anaphylaxis experiment (protein, UniProt P01012 2-386, looked up)
Ovalbumin: GSIGAASMEFCFDVFKELKVHHANENIFYCPIAIMSALAMVYLGAKDSTRTQINKVVRFDKLPGFGDSIEAQCGTSVNVHSSLRDILNQITKPNDVYSFSLASRLYAEERYPILPEYLQCVKELYRGGLEPINFQTAADQARELINSWVESQTNGIIRNVLQPSSVDSQTAMVLVNAIVFKGLWEKAFKDEDTQAMPFRVTEQESKPVQMMYQIGLFRVASMASEKMKILELPFASGTMSMLVLLPDEVSGLEQLESIINFEKLTEWTSSNVMEERKIKVYLPRMKMEEKYNLTSVLMAMGITDVFSSSANLSGISSAESLKISQAVHAAHAEINEAGREVVGSAEAGVDAASVSEEFRADHPFLFCIKHIATNAVLFFGRCVSP
For the molecule B1, the “Time to death of all guinea pigs after challenge administration” value in the data set with guinea pigs (positive control group) is ≤ 7 min. For the same molecule, in the data set on guinea pigs (setting [1]), the “Anaphylaxis Degree of occurrence” value is listed as “extremely positive”; the “Anaphylaxis Incidence (%)” value was 100%; the “Number of symptoms of anaphylaxis and occurrence proportion: 0” value is on record as 0; the “Number of symptoms of anaphylaxis and occurrence proportion: 1-4” value came out at 0. In the data set on guinea pigs (setting [1]), the “Number of symptoms of anaphylaxis and occurrence proportion: 5-10” value is on record as 0; the “Number of symptoms of anaphylaxis and occurrence proportion: 11-19” value was 0; the “Number of symptoms of anaphylaxis and occurrence proportion: 20” value is given as 6/6.
